The experiment concerns microbial load on the hands. Kind of experiment: hand disinfectant experiment according to EN 1500. The experiment is classed as in vivo. Particulars: EN 1500, six samples per product; reference 60% 2-propanol (vol/vol). From the text:
The state of the art for hand disinfectants is described by the test methods, in which an agent is examined in regard to its efficiency. Currently, all agents, which are to be approved for hygienic hand disinfection have to be examined according to standard EN1500. The EN 1500 uses as a microbicidal reference substance 60% 2-propanol (vol/vol) in water. […] In these cases, the effectiveness of alcoholic hand disinfectants with or without the addition of quaternary ammonium compounds is more or less the same. It has also been known that products are possible, which contain as an active agent about 4% of a quaternary ammonium compound or a guanidine and contain, apart from this compound, solubilizers like propylene glycol, butylene glycol and other polyalcohols, so that the products have a degreasing effect on the skin. Unfortunately, all of these products were effective only according to the new standards EN 1499, hand decontamination, which have to meet less stringent requirements than the EN 1500. Agents, which only have to meet the requirements of the EN1499 have to be better than soap in a comparative test. Whereas for passing the EN 1500, in general, a microbial reduction of 4.5 log increments (i.e., a 4.5 log reduction) is required, passing the EN 1499 in general requires 3 log increments (i.e., a 3 log reduction). This is only 3% of the reduction required by the EN 1500. […]

Experimental findings from patent US20200170247A1, “HAND DISINFECTANTS” (priority 2014, published 2020) are described below.

On to `CC(C)O` [60% 2-propanol (vol/vol), 2-propanol], for which the Reduction factor is recorded as 4.1-4.6.
